Assay results published in US20250268816A1, “EXTENDED-RELEASE FORMULATION CONTAINING CRESOL” (UNIVERSITY OF MARYLAND, BALTIMORE, priority 2022, published 2025).
Read-outs that look alike come from different tables or passages of the source.

Key:
[1] = in mice; cited from earlier work
[2] = ART838 release study from ISFGSs into PBS; type: physicochemical
Description: ISFGS turbidity increased with time and with ART838 loading content, and all loaded ISDs […]. The diffusion of the solvents from the depot in the first week was not sufficient for ART838 to diffuse out of the ISFGS due to the hydrophobic interactions between ART838 and PLGA/PLA polymers. The ISFGS system is able to continually release ART838 for 1 month and the ISD form can be tuned to control ART838 release profiles.
This delayed release profile might be beneficial to potentiate antitumor responses initiated by other drug agents. Therefore it is contemplated that the polymeric formulations of the ISFGS system can be altered to tune the ART838 release curve, aiming to modulate the initiation of release while maintaining the stable release observed here. In addition, the ISFGSs can be used with other dimeric ART analogs or other drug compounds, both for administration and for research purposes, for example to analyze cytotoxicity and bioeffects of the loaded ISFGSs using in vitro cell culture models.

[3] = Drug release study from the in situ gelling system (ISFGSs); type: physicochemical
Procedure: FIG. 29 is a graph showing the results of a dexamethasone release study using 6 wt % Dex and 24 wt % Polymer 80 μL.
FIGS. 30A and 30B are graphs showing the effect of polymer composition on the cumulative release of remdesivir from ISFGSs; 3 wt % 80 and 160 uL-24 wt %.
FIGS. 31A and 31B are graphs showing the effect of polymer composition on the cumulative release of GS-441524 from 80 μL of ISFGSs.
FIGS. 32A and 32B are graphs showing the effect of polymer composition on the cumulative release of GS-441524 from 160 μL of ISFGSs.
FIG. 33A and FIG. 33B are a set of graphs showing the effect of polymer composition and solution volume on the cumulative release of artemisinin from ISFGSs.
FIGS. 37A and 37B are graphs showing the cumulative release of gilteritinib from ISFGSs: Gilteritinib 4 wt % Release 80 μL PLGA 50/50 depots.

[4] = system: feline infectious peritonitis (FIP); details: cited from earlier work
[5] = human patients; cited from earlier work
[6] = in vivo; cited from earlier work
[7] = In vitro cumulative release of insulin from ISFGSs; type: physicochemical; details: for time of continuous insulin release: from ISFGSs
Description: The effect of formulation volume in vitro was also studied.

diabetic rats = assay: Blood glucose level lowering after subcutaneous injection in diabetic rats; type: in vivo; details: subcutaneously injected insulin, 5 IU, within 4 h after the injection
Description: The effect of subcutaneously injected insulin as the therapeutic agent component of the subject drug delivery system on diabetic rats was also studied. More specifically, the effect of an insulin depot prepared and delivered in accordance with the teachings of the subject invention on the cumulative release of insulin was studied.

## C[C@@H]1CCC2[C@@H](C)[C@@H](CC(COP(=O)(Oc3ccccc3)Oc3ccccc3)C[C@H]3O[C@@H]4O[C@@]5(C)CCC6[C@H](C)CCC([C@H]3C)[C@]64OO5)O[C@@H]3O[C@@]4(C)CCC1[C@@]23OO4 (stereo partly drawn) [ART838]
[1]
  half-life: 3.19 h
[2]
  time of continual ART838 release from the ISFGS system: 1 month

## N#C[C@@]1(c2ccc3c(N)ncnn23)O[C@H](CO)[C@@H](O)[C@H]1O [GS-441524]
[3]
  release from the in situ gelling system (in words): sustained release
[4]
  activity against FIP in cell culture (in words): equivalent
[5]
  half-life: around 24 hours

## CCC(CC)COC(=O)[C@H](C)N[P@](=O)(OC[C@H]1O[C@@](C#N)(c2ccc3c(N)ncnn23)[C@H](O)[C@@H]1O)Oc1ccccc1 [Remdesivir]
[6]
  half-life: 53.4 min

## C[C@@H]1CC[C@H]2[C@@H](C)C(=O)O[C@@H]3O[C@@]4(C)CC[C@@H]1[C@]32OO4 [artemisinin]
[3]
  release from the in situ gelling system (in words): sustained release

## Degludec
[7]; comparison between ISFGS formulations
  relative insulin release rate (in words): slower
[7]
  time of continuous insulin release: 7 days

## insulin
[6]
  half-life: 4 to 6 min
[7]
  time of continuous insulin release: 7 days
Diabetic rats
  blood glucose level: about 100 mg·dL^−1
